Target: T1, Human TRPC6 (Homo sapiens, UniProt Q9Y210)
T1 construct: expressed in transfected cells
T1 sequence (Q9Y210 1-931): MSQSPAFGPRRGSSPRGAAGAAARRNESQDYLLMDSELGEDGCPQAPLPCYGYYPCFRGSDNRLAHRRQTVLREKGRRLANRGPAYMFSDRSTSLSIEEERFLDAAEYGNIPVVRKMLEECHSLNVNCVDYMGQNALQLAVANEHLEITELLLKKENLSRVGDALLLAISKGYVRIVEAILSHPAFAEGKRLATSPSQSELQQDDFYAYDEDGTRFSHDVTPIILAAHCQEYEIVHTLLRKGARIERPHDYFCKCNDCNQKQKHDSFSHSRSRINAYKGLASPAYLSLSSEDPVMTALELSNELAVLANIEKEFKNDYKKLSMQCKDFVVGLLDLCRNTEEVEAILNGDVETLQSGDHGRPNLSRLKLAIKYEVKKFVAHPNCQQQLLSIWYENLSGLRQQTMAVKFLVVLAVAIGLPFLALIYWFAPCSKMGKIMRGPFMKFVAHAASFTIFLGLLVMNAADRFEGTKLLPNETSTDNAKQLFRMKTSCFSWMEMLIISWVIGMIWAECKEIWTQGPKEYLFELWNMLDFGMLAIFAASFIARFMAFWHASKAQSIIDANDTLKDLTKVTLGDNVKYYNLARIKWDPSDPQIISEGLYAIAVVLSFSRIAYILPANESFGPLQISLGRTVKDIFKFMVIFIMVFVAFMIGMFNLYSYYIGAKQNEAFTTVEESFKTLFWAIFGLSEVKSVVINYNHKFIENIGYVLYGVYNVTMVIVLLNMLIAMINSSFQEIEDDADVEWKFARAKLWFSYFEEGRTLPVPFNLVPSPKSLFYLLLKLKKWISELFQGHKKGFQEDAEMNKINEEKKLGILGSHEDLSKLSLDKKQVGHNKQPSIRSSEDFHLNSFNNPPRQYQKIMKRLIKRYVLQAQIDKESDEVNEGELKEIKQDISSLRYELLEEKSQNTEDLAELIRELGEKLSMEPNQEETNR
Test: Evaluation of TRPC6 channel inhibitory activity (1), FLIPR Calcium 5 Assay Kit, OAG stimulation (Compound Nos. 1-1293)
Type: cell-based
Settings: Human TRPC6 stably-expressing cells, OAG 30 μM, FLIPR Calcium 5 Assay Kit; read-out: Inhibitory activity (pIC50 class) (converted)
Outline: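 Calcium influx read by FLIPR fluorescence in cells stably expressing human TRPC6, dye-loaded 30 min. Compounds preincubated 20 min, then OAG stimulation at 30 μM final. Inhibition fitted by four-parameter logistic regression to give pIC50, reported as +/++/+++ categories.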

Compared with `Cc1cc(Oc2cc(C#N)ccc2-c2ccc([C@H](O)CN)cn2)cc(C2CCOCC2)n1` [compound 580, 4-[5-[(1S)-2-amino-1-hydroxyethyl]pyridin-2-yl]-3-[2-methyl-6-(oxan-4-yl)pyridin-4-yl]oxybenzonitrile], `Cn1nc(C2CCOCC2)cc1Oc1cc(C#N)ccc1-c1ncc(CN)cn1` [compound 441, 4-[5-(aminomethyl)pyrimidin-2-yl]-3-[2-methyl-5-(oxan-4-yl)pyrazol-3-yl]oxybenzonitrile] is lower in IC50: 10 to 1000 nM for the first, under 10 nM for the second.

`Cn1nc(C2CCC2)cc1Oc1cc(C#N)ccc1-c1ccc(CCN)cn1` [Compound 237, 4-[5-(2-aminoethyl)pyridin-2-yl]-3-(5-cyclobutyl-2-methylpyrazol-3-yl)oxybenzonitrile] and `CC(N)c1ccc(-c2ccc(C#N)cc2Oc2cc(C3CC3)nn2C)nc1` (stereo not drawn) [compound 401, 4-[5-(1-aminoethyl)pyridin-2-yl]-3-(5-cyclopropyl-2-methylpyrazol-3-yl)oxybenzonitrile] cannot be ordered by IC50: under 10 nM for the first, under 10 nM for the second.

First: Cc1nc(C(F)(F)F)cn1Cc1cc(C#N)ccc1-c1ncc(CCN)cn1 [compound 1173, 4-[5-(2-aminoethyl)pyrimidin-2-yl]-3-[[2-methyl-4-(trifluoromethyl)imidazol-1-yl]methyl]benzonitrile]
Second: COCCOc1cc(Oc2cc(C#N)ccc2-c2ncc(CCN)cn2)cc(C)n1 [compound 492, 4-[5-(2-aminoethyl)pyrimidin-2-yl]-3-[2-(2-methoxyethoxy)-6-methylpyridin-4-yl]oxybenzonitrile]
The IC50 of the first is lower: under 10 nM for the first, 10 to 1000 nM for the second.

Going from `Cc1nc(Oc2cc(C#N)ccc2-c2ncc(CCN)cn2)cc(N2CCCC2)n1` [compound 448, 4-[5-(2-aminoethyl)pyrimidin-2-yl]-3-(2-methyl-6-pyrrolidin-1-ylpyrimidin-4-yl)oxybenzonitrile] to `Cc1nc(Oc2cc(C#N)ccc2-c2ncc(CN)cn2)cc(OC2CC2)n1` [compound 898, 4-[5-(aminomethyl)pyrimidin-2-yl]-3-(6-cyclopropyloxy-2-methylpyrimidin-4-yl)oxybenzonitrile], the IC50 rises from under 10 nM to over 1000 nM.

First: N#Cc1ccc(-c2ccc(CCN)cn2)c(Oc2cc(N3CCOCC3)cnn2)c1 [Compound 91, 4-[5-(2-aminoethyl)pyridin-2-yl]-3-(5-morpholin-4-ylpyridazin-3-yl)oxybenzonitrile]
Second: N#Cc1ccc(-c2ccc(CCN)cn2)c(Oc2cc(N3CCOCC3)nc(C(F)(F)F)n2)c1 [Compound 148, 4-[5-(2-aminoethyl)pyridin-2-yl]-3-[6-morpholin-4-yl-2-(trifluoromethyl)pyrimidin-4-yl]oxybenzonitrile]
The IC50 of the first is higher: over 1000 nM for the first, 10 to 1000 nM for the second.

First: N#Cc1ccc(-c2ncc(CCN)cn2)c(Oc2nnc(-c3ccccc3)s2)c1 [compound 706, 4-[5-(2-aminoethyl)pyrimidin-2-yl]-3-[(5-phenyl-1,3,4-thiadiazol-2-yl)oxy]benzonitrile]
Second: Cc1nc(Oc2cc(C#N)ccc2-c2ncc(C(O)CN)s2)cc(-c2ccccc2)n1 (stereo not drawn) [Compound 224, 4-[5-(2-amino-1-hydroxyethyl)-1,3-thiazol-2-yl]-3-(2-methyl-6-phenylpyrimidin-4-yl)oxybenzonitrile]
The IC50 of the first is lower: under 10 nM for the first, 10 to 1000 nM for the second.

`Cn1nc(C2CC2)cc1Oc1cc(C#N)ccc1-c1ncc(CN)cn1` [compound 325, 4-[5-(aminomethyl)pyrimidin-2-yl]-3-(5-cyclopropyl-2-methylpyrazol-3-yl)oxybenzonitrile] and `CCN(CC)c1cc(Oc2cc(C#N)ccc2-c2ncc([C@@H](F)CN)cn2)n(C)n1` [compound 914, 4-[5-[(1R)-2-amino-1-fluoroethyl]pyrimidin-2-yl]-3-[5-(diethylamino)-2-methylpyrazol-3-yl]oxybenzonitrile] cannot be ordered by IC50: under 10 nM for the first, under 10 nM for the second.

In the case of `Cc1nc(Oc2cc(C#N)ccc2-c2ccc(CCN)cc2)cc(-c2nccs2)n1` [Compound 40, 4-[4-(2-aminoethyl)phenyl]-3-[2-methyl-6-(1,3-thiazol-2-yl)pyrimidin-4-yl]oxybenzonitrile], the IC50 is reported as over 1000 nM.
